Reference: PMC3001897, “High-Throughput Chemical Screen Identifies a Novel Potent Modulator of Cellular Circadian Rhythms and Reveals CKIα as a Clock Regulatory Kinase” (PLoS Biology, 2010)

Legend:
[1] = test system: lung explants; experiment: Circadian period in lung explants from mPer2Luc knockin mice; format: cell-based, mouse; conditions: 0 to 9 µM
Procedure: (§1) Explants of lung and SCN were dissected from mPer2^Luc knockin mice and cultured in explant medium as described previously. The medium was changed every week with increasing concentration of longdaysin each time (from 0 to 9 µM, final 0.7% DMSO). The luminescence was recorded every 10 min with LumiCycle luminometer (Actimetrics), and the period parameter was obtained by using LumiCycle Analysis software (Actimetrics).

[2] = biological target: T1, CKIδ (Homo sapiens, UniProt P48730); experiment: Cell-based PER1 degradation assay (PER1-LUC), CKIδ
T1 sequence (P48730 whole entry, species assumed, the tested form may be a part): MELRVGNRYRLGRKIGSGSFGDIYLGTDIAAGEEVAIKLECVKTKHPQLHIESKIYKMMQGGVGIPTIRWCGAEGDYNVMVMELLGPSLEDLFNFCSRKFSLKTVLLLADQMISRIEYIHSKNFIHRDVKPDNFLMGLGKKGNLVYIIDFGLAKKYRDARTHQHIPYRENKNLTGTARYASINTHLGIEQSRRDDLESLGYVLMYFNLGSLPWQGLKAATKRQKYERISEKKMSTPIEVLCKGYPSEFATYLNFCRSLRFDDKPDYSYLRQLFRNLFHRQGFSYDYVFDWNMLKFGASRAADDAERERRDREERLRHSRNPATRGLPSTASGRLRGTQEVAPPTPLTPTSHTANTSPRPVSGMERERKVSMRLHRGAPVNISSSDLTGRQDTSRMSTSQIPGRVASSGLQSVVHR
Procedure: HEK293T cells (6.0×10^4 cells) were reverse transfected on 96-well white solid-bottom plates by Lipofectamine 2000 with 40 ng each of expression vectors for C-terminally luciferase-fused PER1 (in p3XFLAG-CMV-14) and N-terminally HA-tagged kinase (in p3XFLAG-CMV-14). For luciferase (in p3XFLAG-CMV-14), 2 ng of expression vector with 38 ng of empty vector was used because of its efficient expression. After 48 h, the medium was supplemented with luciferin (final 1 mM) and HEPES-NaOH (pH 7.2; final 10 mM). After 1 h, cycloheximide (final 20 µg/ml) was added to the medium, and the plate was covered with optically clear film. The luminescence was recorded every 10 min by using the Tecan luminometer. Half-life was obtained by using Prism software (GraphPad Software).

[3] = biological target: T1, CKIδ; experiment: PER2-LUC degradation assay, CKIδ; format: cell-based; conditions: HEK293T, 0 to 20 µM, 24 h
[4] = test system: SCN explants; experiment: Circadian period in SCN explants from mPer2Luc knockin mice; format: cell-based, mouse; conditions: 0 to 9 µM
Procedure: as §1

[5] = biological target: T2, ERK2 (Homo sapiens, UniProt P28482); experiment: In vitro kinase assay, ERK2; format: biochemical
T2 construct: purchased Millipore 14-550
T2 sequence (P28482 whole entry, species assumed): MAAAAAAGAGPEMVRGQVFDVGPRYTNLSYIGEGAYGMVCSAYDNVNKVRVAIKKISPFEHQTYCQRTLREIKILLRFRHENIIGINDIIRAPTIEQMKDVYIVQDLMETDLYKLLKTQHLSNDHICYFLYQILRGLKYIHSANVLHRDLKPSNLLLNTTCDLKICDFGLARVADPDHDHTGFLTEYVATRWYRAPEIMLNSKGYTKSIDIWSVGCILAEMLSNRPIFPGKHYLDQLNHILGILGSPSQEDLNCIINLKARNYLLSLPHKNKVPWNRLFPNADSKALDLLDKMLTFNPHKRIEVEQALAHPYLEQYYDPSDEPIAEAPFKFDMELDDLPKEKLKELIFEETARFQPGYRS
Procedure: (§2) The CKIδ, CKIα, CDK7, and ERK2 kinase assays were performed on 384-well plates (10 µl volume). The reaction mixture was as follows: for CKIδ, 2 ng/µl CKIδ (Millipore, 14-520), 50 µM peptide substrate RKKKAEpSVASLTSQCSYSS corresponding to human PER2 Lys659-Ser674 [47], and CKI buffer (40 mM Tris, 10 mM MgCl2, 0.5 mM DTT, 0.1 mg/ml BSA, pH 7.5); for CKIα, 1 ng/µl CKIα (Invitrogen, PV3850), 50 µM CKI peptide substrate (Anaspec, 60547-1), and CKI buffer; for CDK7, 5 ng/µl CDK7 (Millipore, 14-476), 100 µM Cdk7/9 peptide substrate (Millipore, 12-526), and CKI buffer; for ERK2, 1.5 ng/µl ERK2 (Millipore, 14-550), 0.8 µg/µl MBP (Millipore, 13-104), and ERK buffer (50 mM Tris, 10 mM MgCl2, 0.5 mM DTT, 1 mM EGTA, pH 7.5). Five hundred nl of compound was added to the mixture (final 5% DMSO), and the reaction was started by adding ATP (final 5 µM). After incubation at 30°C for 3h, 10 µl of Kinase-Glo Luminescent Kinase Assay reagent (Promega) was added, and the luminescence was detected to determine remaining ATP amount. […] IC50 value was obtained by using Prism software (GraphPad Software).

[6] = biological target: T1, CKIδ; experiment: In vitro kinase assay, CKIδ; format: biochemical; parameters: purchased Millipore 14-520; conditions: ATP 5 µM; from Figure 2E
Procedure: as §2

[7] = biological target: p38α (Homo sapiens, UniProt Q16539); experiment: In vitro kinase assay, p38α (unpublished data); format: biochemical
p38α, sequence (Q16539 whole entry): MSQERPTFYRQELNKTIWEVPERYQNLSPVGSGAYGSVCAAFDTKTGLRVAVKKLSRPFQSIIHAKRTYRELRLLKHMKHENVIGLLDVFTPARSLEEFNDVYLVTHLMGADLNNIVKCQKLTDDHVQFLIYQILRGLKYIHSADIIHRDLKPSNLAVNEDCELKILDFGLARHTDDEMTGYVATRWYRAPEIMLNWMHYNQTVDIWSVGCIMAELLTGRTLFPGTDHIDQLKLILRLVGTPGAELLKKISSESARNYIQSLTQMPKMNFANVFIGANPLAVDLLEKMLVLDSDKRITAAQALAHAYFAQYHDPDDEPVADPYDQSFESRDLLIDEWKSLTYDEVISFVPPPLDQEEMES

[8] = biological target: CKIα (Homo sapiens, UniProt P48729); experiment: In vitro kinase assay, CKIα; format: biochemical; parameters: purchased Invitrogen PV3850; conditions: ATP 5 µM; from Figure 2E
CKIα, sequence (P48729 whole entry): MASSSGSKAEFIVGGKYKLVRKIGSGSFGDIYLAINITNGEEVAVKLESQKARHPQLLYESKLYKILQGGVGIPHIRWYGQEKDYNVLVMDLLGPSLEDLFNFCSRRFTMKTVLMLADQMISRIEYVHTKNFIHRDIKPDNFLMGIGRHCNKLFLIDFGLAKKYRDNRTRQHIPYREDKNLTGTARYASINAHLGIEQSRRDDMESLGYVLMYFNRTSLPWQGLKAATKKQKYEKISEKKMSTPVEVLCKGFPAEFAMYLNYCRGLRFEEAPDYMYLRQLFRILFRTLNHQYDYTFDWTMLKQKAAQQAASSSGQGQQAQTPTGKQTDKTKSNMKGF
Procedure: as §2

[9] = test system: protein kinases (CKIδ, CKIα, ERK2, CDK7, p38α; ERK1); experiment: Affinity chromatography with compound 3 resin and U2OS cell lysate; format: binding, human
Procedure: U2OS cells kept in confluence (2×10^8 cells) were collected with ice-cold PBS and homogenized by using Dounce homogenizer in 5 ml of lysis buffer (25 mM MOPS, 15 mM EGTA, 15 mM MgCl2, 1 mM DTT, 60 mM β-glycerophosphate, 15 mM p-nitrophenyl phosphate, 1 mM Na3VO4, 1 mM NaF, 1 mM phenyl phosphate, 10 µg/ml leupeptin, 10 µg/ml aprotinin, 10 µg/ml soybean trypsin inhibitor, 100 µM benzamidine, pH7.2). The homogenate was sonicated and centrifuged (16,000×g) at 4°C for 20 min. The resulting supernatant was split into two, and each portion was incubated with or without 100 µM longdaysin (final 0.1% DMSO) at 4°C for 10 min (Figure 2C). Then, 120 µl of compound 3 [50% slurry in bead buffer (50 mM Tris, 250 mM NaCl, 5 mM EDTA, 5 mM EGTA, 0.1% NP-40, 5 mM NaF, 10 µg/ml leupeptin, 10 µg/ml aprotinin, 10 µg/ml soybean trypsin inhibitor, 100 µM benzamidine, pH 7.4)] was added to the mixture and incubated at 4°C for 1 h with rotation. […]
All gel bands were subjected to LC-MS/MS analysis as described previously. Tandem MS data were analyzed using Sequest (ThermoFinnigan, San Jose, CA; Version 3.0). […]
Scaffold (version Scaffold_2_05_00, Proteome Software Inc., Portland, OR) was used to validate MS/MS based peptide and protein identifications. […] Crude differential quantitation of proteins identified in both pulldown experiments was performed by comparing the number of assigned peptides.

CC(C)n1cnc2c(NCc3cccc(C(F)(F)F)c3)ncnc21 [Longdaysin, 9-isopropyl-N-(3-(trifluoromethyl)benzyl)-9H-purin-6-amine]
Effect on circadian period [1]: dose-dependent period lengthening | EC50 ([2]; HEK293T cells, 24 h treatment, from Figure 4E): 9.7 µM | Effect on CKIδ-dependent degradation of PER1 ([2]; HEK293T, 0 to 20 µM, 24 h): inhibited by longdaysin treatment in a dose-dependent manner | Effect on CKIδ-mediated PER2-LUC degradation [3]: inhibited the CKIδ-mediated PER2-LUC degradation in a dose-dependent manner | Effect on circadian period [4]: dose-dependent period lengthening | IC50 ([5]; ATP 5 µM, from Figure 2E): 52 µM | Inhibition of ERK2 in vitro ([5]; range of 3 to 24 µM): considerably inhibited ERK2 in vitro | IC50 [6]: 8.8 µM | Effect on p38α activity [7]: much less effect | IC50 [8]: 5.6 µM | Binding of protein kinases to the affinity resin on competition ([9]; 100 µM free longdaysin as soluble competitor): decreased binding in the presence of free longdaysin | Signal reduction of listed binding proteins upon competition ([9]; 100 µM free longdaysin, tandem MS spectra): ≥ 3 fold
